Test system: NCI-H929 complex spheroids, viability % test/control
Assay: Anticancer human tumor NCI-H929 cell line growth inhibition [RAS];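 further: compound exposure lasted seven days before viability was read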;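 on viability, T/C: 100% = DMSO vehicle control viability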
Conditions: for IC50: curve of first compound; for viability, T/C: stronger effect = lower value
Outline: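 Agents were tested in combination matrices in half-log decrements from a top concentration at or near clinical Cmax (10 microM if undetermined). Targets were multi-cell spheroids of tumour lines plus HUVEC and MSC stromal cells.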

[1] = second compound 0.00316 µM, first compound 0.0316 µM
[2] = second compound 0.00316 µM, first compound 0.1 µM
[3] = second compound 0.00316 µM, first compound 0.316 µM
[4] = second compound 0.00316 µM, first compound 1 µM
[5] = second compound 0.00316 µM, first compound 3.16 µM
[6] = second compound 0.00316 µM, first compound 10 µM
[7] = second compound 0.01 µM, first compound 0.0316 µM
[8] = second compound 0.01 µM, first compound 0.1 µM
[9] = second compound 0.01 µM, first compound 0.316 µM
[10] = second compound 0.01 µM, first compound 1 µM
[11] = second compound 0.01 µM, first compound 3.16 µM
[12] = second compound 0.01 µM, first compound 10 µM
[13] = second compound 0.0316 µM, first compound 0.0316 µM
[14] = second compound 0.0316 µM, first compound 0.1 µM
[15] = second compound 0.0316 µM, first compound 0.316 µM
[16] = second compound 0.0316 µM, first compound 1 µM
[17] = second compound 0.0316 µM, first compound 3.16 µM
[18] = second compound 0.0316 µM, first compound 10 µM
[19] = second compound 0.1 µM, first compound 0.0316 µM
[20] = second compound 0.1 µM, first compound 0.1 µM
[21] = second compound 0.1 µM, first compound 0.316 µM
[22] = second compound 0.1 µM, first compound 1 µM
[23] = second compound 0.1 µM, first compound 3.16 µM
[24] = second compound 0.1 µM, first compound 10 µM
[25] = second compound 0.316 µM, first compound 0.0316 µM
[26] = second compound 0.316 µM, first compound 0.1 µM
[27] = second compound 0.316 µM, first compound 0.316 µM
[28] = second compound 0.316 µM, first compound 1 µM
[29] = second compound 0.316 µM, first compound 3.16 µM
[30] = second compound 0.316 µM, first compound 10 µM
[31] = second compound 1 µM, first compound 0.0316 µM
[32] = second compound 1 µM, first compound 0.1 µM
[33] = second compound 1 µM, first compound 0.316 µM
[34] = second compound 1 µM, first compound 1 µM
[35] = second compound 1 µM, first compound 3.16 µM
[36] = second compound 1 µM, first compound 10 µM
[37] = second compound 0.000949 µM, first compound 0.0316 µM
[38] = second compound 0.000949 µM, first compound 0.1 µM
[39] = second compound 0.000949 µM, first compound 0.316 µM
[40] = second compound 0.000949 µM, first compound 1 µM
[41] = second compound 0.003 µM, first compound 0.0316 µM
[42] = second compound 0.003 µM, first compound 0.1 µM
[43] = second compound 0.003 µM, first compound 0.316 µM
[44] = second compound 0.003 µM, first compound 1 µM
[45] = second compound 0.00949 µM, first compound 0.0316 µM
[46] = second compound 0.00949 µM, first compound 0.1 µM
[47] = second compound 0.00949 µM, first compound 0.316 µM
[48] = second compound 0.00949 µM, first compound 1 µM
[49] = second compound 0.03 µM, first compound 0.0316 µM
[50] = second compound 0.03 µM, first compound 0.1 µM
[51] = second compound 0.03 µM, first compound 0.316 µM
[52] = second compound 0.03 µM, first compound 1 µM
[53] = second compound 0.0949 µM, first compound 0.0316 µM
[54] = second compound 0.0949 µM, first compound 0.1 µM
[55] = second compound 0.0949 µM, first compound 0.316 µM
[56] = second compound 0.0949 µM, first compound 1 µM
[57] = second compound 0.3 µM, first compound 0.0316 µM
[58] = second compound 0.3 µM, first compound 0.1 µM
[59] = second compound 0.3 µM, first compound 0.316 µM
[60] = second compound 0.3 µM, first compound 1 µM

CCC(CC)c1cc(NC2CCC(N)C2)n2nccc2n1 (stereo not drawn) + C=CC(=O)N1CCN(c2nc(OCC3CCCN3C)nc3c(F)c(-c4nc(N)cc(C)c4C(F)(F)F)c(Cl)cc23)C(C)C1
IC50 (second compound 0.00316 µM): 1720 nM
IC50 (second compound 0.01 µM): 1770 nM
IC50 (second compound 0.0316 µM): 1750 nM
IC50 (second compound 0.1 µM): 1760 nM
IC50 (second compound 0.316 µM): 1770 nM
IC50 (second compound 1 µM): 1780 nM
viability, T/C [1]: 100%
viability, T/C [2]: 91.7%
viability, T/C [3]: 93.5%
viability, T/C [4]: 93.2%
viability, T/C [5]: 1.09%
viability, T/C [6]: 0.82%
viability, T/C [7]: 96.3%
viability, T/C [8]: 98.3%
viability, T/C [9]: 97.9%
viability, T/C [10]: 97.9%
viability, T/C [11]: 1.58%
viability, T/C [12]: 0.56%
viability, T/C [13]: 93.3%
viability, T/C [14]: 95.7%
viability, T/C [15]: 97.3%
viability, T/C [16]: 100%
viability, T/C [17]: 1.12%
viability, T/C [18]: 0.24%
viability, T/C [19]: 95.9%
viability, T/C [20]: 96.1%
viability, T/C [21]: 99.4%
viability, T/C [22]: 99.6%
viability, T/C [23]: 0.2%
viability, T/C [24]: 0.59%
viability, T/C [25]: 98.5%
viability, T/C [26]: 99.4%
viability, T/C [27]: 94.7%
viability, T/C [28]: 101%
viability, T/C [29]: 1%
viability, T/C [30]: 0.48%
viability, T/C [31]: 106%
viability, T/C [32]: 104%
viability, T/C [33]: 97%
viability, T/C [34]: 99.2%
viability, T/C [35]: 0.64%
viability, T/C [36]: 0.11%

NC1c2ccccc2OC12CCN(c1cnc3c(N4CCCc5ncccc54)n[nH]c3n1)CC2 (stereo not drawn) + C=CC(=O)N1CCN(c2nc(OCC3CCCN3C)nc3c(F)c(-c4nc(N)cc(C)c4C(F)(F)F)c(Cl)cc23)C(C)C1
IC50 (second compound 0.00316 µM): > 10000 nM
IC50 (second compound 0.01 µM): > 10000 nM
IC50 (second compound 0.0316 µM): > 10000 nM
IC50 (second compound 0.1 µM): > 10000 nM
IC50 (second compound 0.316 µM): > 10000 nM
IC50 (second compound 1 µM): > 10000 nM
viability, T/C [1]: 98.8%
viability, T/C [2]: 94.8%
viability, T/C [3]: 99.3%
viability, T/C [4]: 98.9%
viability, T/C [5]: 101%
viability, T/C [6]: 66.2%
viability, T/C [7]: 96.2%
viability, T/C [8]: 90.6%
viability, T/C [9]: 96%
viability, T/C [10]: 103%
viability, T/C [11]: 99%
viability, T/C [12]: 66.8%
viability, T/C [13]: 96.9%
viability, T/C [14]: 99.7%
viability, T/C [15]: 101%
viability, T/C [16]: 99.8%
viability, T/C [17]: 96.6%
viability, T/C [18]: 63.5%
viability, T/C [19]: 92.4%
viability, T/C [20]: 99%
viability, T/C [21]: 102%
viability, T/C [22]: 97.4%
viability, T/C [23]: 97.5%
viability, T/C [24]: 69.3%
viability, T/C [25]: 101%
viability, T/C [26]: 103%
viability, T/C [27]: 105%
viability, T/C [28]: 103%
viability, T/C [29]: 102%
viability, T/C [30]: 71.7%
viability, T/C [31]: 104%
viability, T/C [32]: 107%
viability, T/C [33]: 103%
viability, T/C [34]: 102%
viability, T/C [35]: 105%
viability, T/C [36]: 68.9%

C=CC(=O)Nc1cc(Nc2nccc(-c3cn(C)c4ccccc34)n2)c(OC)cc1N(C)CCN(C)C + CCn1c(-c2cccnc2C(C)OC)c2c3cc(ccc31)N1CCOC(CC(NC(=O)C(C(C)C)N(C)C(=O)C3(F)CCN(C(=O)C#CC(C)(C)N(C)C)CC3)C(=O)N3CCCC(N3)C(=O)OCC(C)(C)C2)C1
IC50 (second compound 0.000949 µM): > 1000 nM
IC50 (second compound 0.003 µM): > 1000 nM
IC50 (second compound 0.00949 µM): > 1000 nM
IC50 (second compound 0.03 µM): > 1000 nM
IC50 (second compound 0.0949 µM): > 1000 nM
IC50 (second compound 0.3 µM): > 1000 nM
viability, T/C (second compound 0.000949 µM, first compound 0.00316 µM): 105%
viability, T/C (second compound 0.000949 µM, first compound 0.01 µM): 98.3%
viability, T/C [37]: 110%
viability, T/C [38]: 100%
viability, T/C [39]: 106%
viability, T/C [40]: 100%
viability, T/C (second compound 0.003 µM, first compound 0.00316 µM): 101%
viability, T/C (second compound 0.003 µM, first compound 0.01 µM): 103%
viability, T/C [41]: 103%
viability, T/C [42]: 102%
viability, T/C [43]: 106%
viability, T/C [44]: 103%
viability, T/C (second compound 0.00949 µM, first compound 0.00316 µM): 99.2%
viability, T/C (second compound 0.00949 µM, first compound 0.01 µM): 101%
viability, T/C [45]: 107%
viability, T/C [46]: 103%
viability, T/C [47]: 107%
viability, T/C [48]: 103%
viability, T/C (second compound 0.03 µM, first compound 0.00316 µM): 90.5%
viability, T/C (second compound 0.03 µM, first compound 0.01 µM): 100%
viability, T/C [49]: 108%
viability, T/C [50]: 107%
viability, T/C [51]: 110%
viability, T/C [52]: 102%
viability, T/C (second compound 0.0949 µM, first compound 0.00316 µM): 95.6%
viability, T/C (second compound 0.0949 µM, first compound 0.01 µM): 102%
viability, T/C [53]: 104%
viability, T/C [54]: 106%
viability, T/C [55]: 107%
viability, T/C [56]: 98.3%
viability, T/C (second compound 0.3 µM, first compound 0.00316 µM): 99.8%
viability, T/C (second compound 0.3 µM, first compound 0.01 µM): 102%
viability, T/C [57]: 103%
viability, T/C [58]: 107%
viability, T/C [59]: 105%
viability, T/C [60]: 101%

Cc1nc(N2CCC3(CC2)COC(C)C3N)c(CO)nc1Sc1ccnc(N)c1Cl (stereo not drawn) + CCn1c(-c2cccnc2C(C)OC)c2c3cc(ccc31)N1CCOC(CC(NC(=O)C(C(C)C)N(C)C(=O)C3(F)CCN(C(=O)C#CC(C)(C)N(C)C)CC3)C(=O)N3CCCC(N3)C(=O)OCC(C)(C)C2)C1
IC50 (second compound 0.000949 µM): > 10000 nM
IC50 (second compound 0.003 µM): > 10000 nM
IC50 (second compound 0.00949 µM): > 10000 nM
IC50 (second compound 0.03 µM): > 10000 nM
IC50 (second compound 0.0949 µM): > 10000 nM
IC50 (second compound 0.3 µM): > 10000 nM
viability, T/C [37]: 108%
viability, T/C [38]: 99.1%
viability, T/C [39]: 102%
viability, T/C [40]: 102%
viability, T/C (second compound 0.000949 µM, first compound 3.16 µM): 102%
viability, T/C (second compound 0.000949 µM, first compound 10 µM): 97.8%
viability, T/C [41]: 103%
viability, T/C [42]: 105%
viability, T/C [43]: 102%
viability, T/C [44]: 101%
viability, T/C (second compound 0.003 µM, first compound 3.16 µM): 103%
viability, T/C (second compound 0.003 µM, first compound 10 µM): 99.5%
viability, T/C [45]: 102%
viability, T/C [46]: 101%
viability, T/C [47]: 108%
viability, T/C [48]: 100%
viability, T/C (second compound 0.00949 µM, first compound 3.16 µM): 104%
viability, T/C (second compound 0.00949 µM, first compound 10 µM): 102%
viability, T/C [49]: 99.4%
viability, T/C [50]: 103%
viability, T/C [51]: 103%
viability, T/C [52]: 99.8%
viability, T/C (second compound 0.03 µM, first compound 3.16 µM): 106%
viability, T/C (second compound 0.03 µM, first compound 10 µM): 104%
viability, T/C [53]: 104%
viability, T/C [54]: 97.1%
viability, T/C [55]: 98.2%
viability, T/C [56]: 101%
viability, T/C (second compound 0.0949 µM, first compound 3.16 µM): 98.2%
viability, T/C (second compound 0.0949 µM, first compound 10 µM): 95.7%
viability, T/C [57]: 102%
viability, T/C [58]: 103%
viability, T/C [59]: 101%
viability, T/C [60]: 99.7%
viability, T/C (second compound 0.3 µM, first compound 3.16 µM): 98.2%
viability, T/C (second compound 0.3 µM, first compound 10 µM): 95.5%
